Reference: patent US11739070B2, “C5A receptor modulators” (IDORSIA PHARMACEUTICALS LTD, priority 2018, dated 2023)

Molecular target: T1, C5AR1 (Homo sapiens, UniProt P21730)
T1 construct: host or cells: CHO-K1
T1 sequence (P21730 1-350): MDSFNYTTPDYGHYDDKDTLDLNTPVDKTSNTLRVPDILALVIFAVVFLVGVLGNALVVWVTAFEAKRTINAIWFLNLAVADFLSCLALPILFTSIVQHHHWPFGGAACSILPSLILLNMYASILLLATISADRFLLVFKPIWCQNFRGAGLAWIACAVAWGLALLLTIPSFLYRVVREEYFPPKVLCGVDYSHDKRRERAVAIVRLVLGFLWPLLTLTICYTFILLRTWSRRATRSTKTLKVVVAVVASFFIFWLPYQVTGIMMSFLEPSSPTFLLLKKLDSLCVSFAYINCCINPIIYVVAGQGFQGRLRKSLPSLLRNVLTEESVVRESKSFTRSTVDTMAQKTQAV
Test: hC5a DISCO IC50 assay (PathHunter beta-arrestin, antagonist mode)
Assay type: cell-based
Settings: CHO-K1 C5AR1 beta-arrestin cell line; antagonist vs 1-10 nM C5a agonist; geometric mean values; read-out: C5aR IC50
Outline: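 Antagonist added first, then 1-10 nM C5a agonist; cells incubated 1.5 h at 37 °C. Beta-arrestin signal developed with PathHunter detection reagent, 45 min at RT. IC50 in nmol/l from serial antagonist dilutions, reported as geometric mean of several measurements.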

| Compound | IC50 |
| --- | --- |
| N#Cc1cccc(F)c1N1CC[C@@H](n2c(=O)n(Cc3ccccc3C(F)(F)F)c3c(C(=O)NCCO)cccc32)C1 [Example 193, 1-[(R)-1-(2-Cyano-6-fluoro-phenyl)-pyrrolidin-3-yl]-2-oxo-3-(2-trifluoromethyl-benzyl)-2,3-dihydro-1H-benzoimidazole-4-carboxylic acid (2-hydroxy-ethyl)-amide] | 632 nM |
| COc1cccc2c1n(Cc1cccnc1C(F)(F)F)c(=O)n2[C@@H]1CCN(c2c(C)cccc2F)C1 [Example 195, 1-[(R)-1-(2-Fluoro-6-methyl-phenyl)-pyrrolidin-3-yl]-4-methoxy-3-(2-trifluoromethyl-pyridin-3-ylmethyl)-1,3-dihydro-benzoimidazol-2-one] | 20 nM |
| COc1cccc2c1n(Cc1ccccc1C(F)(F)F)c(=O)n2[C@@H]1CCN(c2ccccc2OC(F)(F)F)C1 [Example 201, 4-Methoxy-1-[(R)-1-(2-trifluoromethoxy-phenyl)-pyrrolidin-3-yl]-3-(2-trifluoromethyl-benzyl)-1,3-dihydro-benzoimidazol-2-one] | 31 nM |
| Cc1cccc(F)c1N1CC[C@@H](n2c(=O)n(Cc3ccccc3C(F)(F)F)c3c(N4CCN(C)CC4)nccc32)C1 [Example 206, 1-[(R)-1-(2-Fluoro-6-methyl-phenyl)-pyrrolidin-3-yl]-4-(4-methyl-piperazin-1-yl)-3-(2-trifluoromethyl-benzyl)-1,3-dihydro-imidazo[4,5-c]pyridin-2-one] | 2300 nM |
| COc1cccc2c1n(Cc1ccccc1C(F)(F)F)c(=O)n2C1CCN(C(=O)OC(C)(C)C)CC1F (stereo not drawn) [Example 210, 3-Fluoro-4-[4-methoxy-2-oxo-3-(2-trifluoromethyl-benzyl)-2,3-dihydro-benzoimidazol-1-yl]-piperidine-1-carboxylic acid tert-butyl ester] | 2290 nM |
| COc1cccc2c1n(Cc1ccccc1C(F)(F)F)c(=O)n2C1CCCN(c2c(C)cccc2F)C1 (stereo not drawn) [Example 212, 1-[1-(2-Fluoro-6-methyl-phenyl)-piperidin-3-yl]-4-methoxy-3-(2-trifluoromethyl-benzyl)-1,3-dihydro-benzoimidazol-2-one] | 2080 nM |
| COc1cccc2c1n(Cc1ccccc1C(F)(F)F)c(=O)n2C1CCCN(C(=O)OC(C)(C)C)C1 (stereo not drawn) [Example 214, 3-[4-Methoxy-2-oxo-3-(2-trifluoromethyl-benzyl)-2,3-dihydro-benzoimidazol-1-yl]-piperidine-1-carboxylic acid tert-butyl ester] | 205 nM |
| COc1cccc2c1n(Cc1ccccc1C(F)(F)F)c(=O)n2C1CN(c2c(C)cccc2F)C1 [Example 215, 1-[1-(2-Fluoro-6-methyl-phenyl)-azetidin-3-yl]-4-methoxy-3-(2-trifluoromethyl-benzyl)-1,3-dihydro-benzoimidazol-2-one] | 27 nM |
| COc1cccc2c1n(Cc1csc(C(F)(F)F)n1)c(=O)n2[C@@H]1CCN(c2c(C)cccc2F)C1 [Example 218, 1-[(R)-1-(2-Fluoro-6-methyl-phenyl)-pyrrolidin-3-yl]-4-methoxy-3-(2-trifluoromethyl-thiazol-4-ylmethyl)-1,3-dihydro-benzoimidazol-2-one] | 346 nM |
| COc1cccc2c1n([C@@H](C)c1ccccc1C(F)(F)F)c(=O)n2C1CCN(c2c(C)cccc2F)C1 (stereo partly drawn) [Example 219, 1-[1-(2-Fluoro-6-methyl-phenyl)-pyrrolidin-3-yl]-4-methoxy-3-[(S)-1-(2-trifluoromethyl-phenyl)-ethyl]-1,3-dihydro-benzoimidazol-2-one] | 34 nM |
| COc1cccc2c1n(Cc1sc(C)nc1C(F)(F)F)c(=O)n2[C@@H]1CCN(c2c(C)cccc2F)C1 [Example 221, 1-[(R)-1-(2-Fluoro-6-methyl-phenyl)-pyrrolidin-3-yl]-4-methoxy-3-(2-methyl-4-trifluoromethyl-thiazol-5-ylmethyl)-1,3-dihydro-benzoimidazol-2-one] | 175 nM |

Now from value to compound:

| IC50 | Compound |
| --- | --- |
| 42 nM | COc1cccc2c1n(Cc1cncnc1C(C)C)c(=O)n2C1CCN(c2c(C)cccc2F)CC1 [Example 192, 1-[1-(2-Fluoro-6-methyl-phenyl)-piperidin-4-yl]-3-(4-isopropyl-pyrimidin-5-ylmethyl)-4-methoxy-1,3-dihydro-benzoimidazol-2-one] |
| 1480 nM | COCCNC(=O)c1cccc2c1n(Cc1ccccc1C(F)(F)F)c(=O)n2[C@@H]1CCN(c2c(F)cccc2C#N)C1 [Example 194, 1-[(R)-1-(2-Cyano-6-fluoro-phenyl)-pyrrolidin-3-yl]-2-oxo-3-(2-trifluoromethyl-benzyl)-2,3-dihydro-1H-benzoimidazole-4-carboxylic acid (2-methoxy-ethyl)-amide] |
| 74 nM | COc1cccc2c1n(Cc1ccccc1C(F)(F)F)c(=O)n2C1C2CC1CN(c1c(C)cccc1F)C2 (stereo not drawn) [Example 197, 1-[3-(2-Fluoro-6-methyl-phenyl)-3-aza-bicyclo[3.1.1]hept-6-yl]-4-methoxy-3-(2-trifluoromethyl-benzyl)-1,3-dihydro-benzoimidazol-2-one] |
| 2 nM | COc1cccc2c1n(Cc1ncccc1C(F)(F)F)c(=O)n2[C@@H]1CCN(c2c(C)cccc2F)C1 [Example 202, 1-[(R)-1-(2-Fluoro-6-methyl-phenyl)-pyrrolidin-3-yl]-4-methoxy-3-(3-trifluoromethyl-pyridin-2-ylmethyl)-1,3-dihydro-benzoimidazol-2-one] |
| 6 nM | COc1cccc2c1n(Cc1cnccc1C(F)(F)F)c(=O)n2[C@@H]1CCN(c2c(C)cccc2F)C1 [Example 203, 1-[(R)-1-(2-Fluoro-6-methyl-phenyl)-pyrrolidin-3-yl]-4-methoxy-3-(4-trifluoromethyl-pyridin-3-ylmethyl)-1,3-dihydro-benzoimidazol-2-one] |
| 30 nM | COCCOc1ccccc1N1CC[C@@H](n2c(=O)n(Cc3ccccc3C(F)(F)F)c3c(OC)cccc32)C1 [Example 204, 4-Methoxy-1-{(R)-1-[2-(2-methoxy-ethoxy)-phenyl]-pyrrolidin-3-yl}-3-(2-trifluoromethyl-benzyl)-1,3-dihydro-benzoimidazol-2-one] |
| 45 nM | COC1CN(c2nccc3c2n(Cc2ccccc2C(F)(F)F)c(=O)n3[C@@H]2CCN(c3c(C)cccc3F)C2)C1 [Example 205, 1-[(R)-1-(2-Fluoro-6-methyl-phenyl)-pyrrolidin-3-yl]-4-(3-methoxy-azetidin-1-yl)-3-(2-trifluoromethyl-benzyl)-1,3-dihydro-imidazo[4,5-c]pyridin-2-one] |
| 508 nM | COCCNc1nccc2c1n(Cc1ccccc1C(F)(F)F)c(=O)n2[C@@H]1CCN(c2c(C)cccc2F)C1 [Example 207, 1-[(R)-1-(2-Fluoro-6-methyl-phenyl)-pyrrolidin-3-yl]-4-(2-methoxy-ethylamino)-3-(2-trifluoromethyl-benzyl)-1,3-dihydro-imidazo[4,5-c]pyridin-2-one] |
| 19 nM | COc1cccc2c1n(Cc1ccccc1OC1CC1)c(=O)n2[C@@H]1CCN(c2c(C)cccc2F)C1 [Example 208, 3-(2-Cyclopropoxy-benzyl)-1-[(R)-1-(2-fluoro-6-methyl-phenyl)-pyrrolidin-3-yl]-4-methoxy-1,3-dihydro-benzoimidazol-2-one] |
| 34 nM | COc1cccc2c1n(Cc1ccccc1OC1CC1)c(=O)n2C1CCN(c2c(C)cccc2F)CC1 [Example 209, 3-(2-Cyclopropoxy-benzyl)-1-[1-(2-fluoro-6-methyl-phenyl)-piperidin-4-yl]-4-methoxy-1,3-dihydro-benzoimidazol-2-one] |
| 27 nM | COc1cccc2c1n(Cc1ccccc1C(F)(F)F)c(=O)n2C1CCN(c2c(C)cccc2F)CC1F (stereo not drawn) [Example 211, 1-[3-Fluoro-1-(2-fluoro-6-methyl-phenyl)-piperidin-4-yl]-4-methoxy-3-(2-trifluoromethyl-benzyl)-1,3-dihydro-benzoimidazol-2-one] |
| 469 nM | COc1cccc2c1n(Cc1ccccc1C(F)(F)F)c(=O)n2C1CN(C(=O)OC(C)(C)C)C1 [Example 213, 3-[4-Methoxy-2-oxo-3-(2-trifluoromethyl-benzyl)-2,3-dihydro-benzoimidazol-1-yl]-azetidine-1-carboxylic acid tert-butyl ester] |
| 12 nM | COc1cccc2c1n(Cc1ncccc1C(F)(F)F)c(=O)n2C1CCN(c2c(C)cccc2F)CC1 [Example 216, 1-[1-(2-Fluoro-6-methyl-phenyl)-piperidin-4-yl]-4-methoxy-3-(3-trifluoromethyl-pyridin-2-ylmethyl)-1,3-dihydro-benzoimidazol-2-one] |
| 158 nM | COc1cccc2c1n(Cc1ccccc1C(F)(F)F)c(=O)n2C1CCCN(c2c(C)cccc2C)C1 (stereo not drawn) [Example 217, 1-[1-(2,6-Dimethyl-phenyl)-piperidin-3-yl]-4-methoxy-3-(2-trifluoromethyl-benzyl)-1,3-dihydro-benzoimidazol-2-one] |
| 109 nM | COc1cccc2c1n(Cc1c(F)cc(F)cc1OC(C)C)c(=O)n2[C@@H]1CCN(c2c(C)cccc2F)C1 [Example 220, 3-(2,4-Difluoro-6-isopropoxy-benzyl)-1-[(R)-1-(2-fluoro-6-methyl-phenyl)-pyrrolidin-3-yl]-4-methoxy-1,3-dihydro-benzoimidazol-2-one] |
| 2650 nM | COc1cccc2c1n(Cc1ccccc1C(F)(F)F)c(=O)n2C1CCN(C(=O)C2CC2)CC1 [Example 222, 1-(1-Cyclopropanecarbonyl-piperidin-4-yl)-4-methoxy-3-(2-trifluoromethyl-benzyl)-1,3-dihydro-benzoimidazol-2-one] |
